Values of other authors, collected in patent US8409637B2, “Compositions and methods for treating and preventing migrainous headaches and associated symptoms” (Puramed Bioscience Inc., priority 2007, dated 2013).

Key:
[1] = molecular target: T1, COX-2 (Homo sapiens, UniProt P35354)
T1 sequence (P35354 18-604): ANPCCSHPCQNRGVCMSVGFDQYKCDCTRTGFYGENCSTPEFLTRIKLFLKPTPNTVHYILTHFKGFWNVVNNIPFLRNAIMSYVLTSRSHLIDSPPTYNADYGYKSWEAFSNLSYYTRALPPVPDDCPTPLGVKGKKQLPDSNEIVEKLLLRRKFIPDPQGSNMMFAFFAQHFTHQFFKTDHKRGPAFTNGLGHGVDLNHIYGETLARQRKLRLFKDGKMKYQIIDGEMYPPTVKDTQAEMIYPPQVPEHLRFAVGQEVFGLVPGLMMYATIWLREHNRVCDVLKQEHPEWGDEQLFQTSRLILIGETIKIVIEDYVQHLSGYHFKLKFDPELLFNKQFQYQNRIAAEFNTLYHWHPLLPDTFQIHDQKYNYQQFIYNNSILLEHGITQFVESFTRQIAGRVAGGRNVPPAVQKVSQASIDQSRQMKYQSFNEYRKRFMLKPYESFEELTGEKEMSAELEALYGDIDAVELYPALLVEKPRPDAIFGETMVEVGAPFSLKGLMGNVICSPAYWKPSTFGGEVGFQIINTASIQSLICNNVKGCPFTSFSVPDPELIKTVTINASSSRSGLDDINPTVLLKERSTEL

[2] = test system: COX-1

Inhibition of COX-2 enzyme activity [1]: inhibits | Inhibition of COX-1 enzyme activity [2]: inhibits
SMILES: C/C=C(/C=O)[C@@H](CC=O)CC(=O)OCCc1ccc(O)cc1 [oleocanthal]
